In paper PMC11531508 (Scientific Reports, 2024):

Molecular target: AChE (Electrophorus electricus) (Electrophorus electricus, UniProt O42275)
Assay: In vitro acetylcholinesterase inhibition assay
Assay type: biochemical

Sequence of AChE (Electrophorus electricus) (O42275 24-633): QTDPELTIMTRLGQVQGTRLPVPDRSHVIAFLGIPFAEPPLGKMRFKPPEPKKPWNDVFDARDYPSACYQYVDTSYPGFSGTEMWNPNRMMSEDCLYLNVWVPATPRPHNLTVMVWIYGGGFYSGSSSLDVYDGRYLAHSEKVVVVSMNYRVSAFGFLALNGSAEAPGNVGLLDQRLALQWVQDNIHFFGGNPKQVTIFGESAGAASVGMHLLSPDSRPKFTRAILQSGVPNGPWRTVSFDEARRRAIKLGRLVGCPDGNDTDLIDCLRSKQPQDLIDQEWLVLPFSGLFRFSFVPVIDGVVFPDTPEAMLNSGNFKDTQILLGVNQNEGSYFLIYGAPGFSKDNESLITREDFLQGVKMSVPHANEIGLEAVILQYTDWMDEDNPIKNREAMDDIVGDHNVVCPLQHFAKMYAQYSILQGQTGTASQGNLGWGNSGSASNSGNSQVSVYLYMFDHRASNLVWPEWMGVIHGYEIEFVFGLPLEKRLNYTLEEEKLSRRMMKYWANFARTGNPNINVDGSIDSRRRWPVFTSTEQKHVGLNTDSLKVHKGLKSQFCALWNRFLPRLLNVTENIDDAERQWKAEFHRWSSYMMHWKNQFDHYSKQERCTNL

Compared with `COc1cc(-c2nc3ccccc3s2)ccc1OCCCCCOc1cc(=O)oc2ccccc12` [Compound 3g, 4-((5-(4-(Benzo[d]thiazol-2-yl)-2-methoxyphenoxy)pentyl)oxy)-2H-chromen-2-one], `COc1cc(-c2nc3ccccc3s2)ccc1OCCCCCCOc1cc(=O)oc2ccccc12` [Compound 3l, 4-((6-(4-(Benzo[d]thiazol-2-yl)-2-methoxyphenoxy)hexyl)oxy)-2H-chromen-2-one] is 4.9-fold higher in IC50: 6.8 ± 0.13 µM for the first, 33.2 ± 0.28 µM for the second.

First: CCOc1cc(-c2nc3ccccc3s2)ccc1OCCCCCCOc1cc(=O)oc2ccccc12 [Compound 3m, 4-((6-(4-(Benzo[d]thiazol-2-yl)-2-ethoxyphenoxy)hexyl)oxy)-2H-chromen-2-one]
Second: CCOc1cc(-c2nc3ccccc3s2)ccc1OCCCCCOc1cc(=O)oc2ccccc12 [Compound 3h, 4-((5-(4-(Benzo[d]thiazol-2-yl)-2-ethoxyphenoxy)pentyl)oxy)-2H-chromen-2-one]
The IC50 of the first is 4.3-fold higher: 27.9 ± 0.2 µM for the first, 6.5 ± 0.12 µM for the second.

Compared with `COc1cc(-c2nc3ccccc3s2)cc(OC)c1OCCCCOc1cc(=O)oc2ccccc12` [Compound 3d, 4-(4-(4-(Benzo[d]thiazol-2-yl)-2,6-dimethoxyphenoxy)butoxy)-2H-chromen-2-one], `COc1cc(-c2nc3ccccc3s2)cc(OC)c1OCCCCCOc1cc(=O)oc2ccccc12` [Compound 3i, 4-((5-(4-(Benzo[d]thiazol-2-yl)-2,6-dimethoxyphenoxy)pentyl)oxy)-2H-chromen-2-one] is 2.5-fold lower in IC50: 6.8 ± 0.1 µM for the first, 2.7 ± 0.1 µM for the second.

Compared with `COc1cc(OCCCCCOc2cc(=O)oc3ccccc23)ccc1-c1nc2ccccc2s1` [Compound 3j, 4-((5-(4-(Benzo[d]thiazol-2-yl)-3-methoxyphenoxy)pentyl)oxy)-2H-chromen-2-one], `COc1cc(OCCCCCCOc2cc(=O)oc3ccccc23)ccc1-c1nc2ccccc2s1` [Compound 3o, 4-((6-(4-(Benzo[d]thiazol-2-yl)-3-methoxyphenoxy)hexyl)oxy)-2H-chromen-2-one] is 4.1-fold higher in IC50: 7.5 ± 0.16 µM for the first, 30.7 ± 0.23 µM for the second.

`COc1cc(OCCCCOc2cc(=O)oc3ccccc23)ccc1-c1nc2ccccc2s1` [Compound 3e, 4-(4-(4-(Benzo[d]thiazol-2-yl)-3-methoxyphenoxy)butoxy)-2H-chromen-2-one] and `COc1cc(-c2nc3ccccc3s2)ccc1OCCCCOc1cc(=O)oc2ccccc12` [Compound 3b, 4-(4-(4-(Benzo[d]thiazol-2-yl)-2-methoxyphenoxy)butoxy)-2H-chromen-2-one] are within 1.5-fold of each other in IC50: 18.7 ± 0.28 µM for the first, 16.5 ± 0.23 µM for the second.

`COc1cc(-c2nc3ccccc3s2)cc(OC)c1OCCCCCCOc1cc(=O)oc2ccccc12` [Compound 3n, 4-((6-(4-(Benzo[d]thiazol-2-yl)-2,6-dimethoxyphenoxy)hexyl)oxy)-2H-chromen-2-one] and `CCOc1cc(-c2nc3ccccc3s2)ccc1OCCCCOc1cc(=O)oc2ccccc12` [Compound 3c, 4-(4-(4-(Benzo[d]thiazol-2-yl)-2-ethoxyphenoxy)butoxy)-2H-chromen-2-one] are within 1.5-fold of each other in IC50: 12.1 ± 0.19 µM for the first, 15.8 ± 0.18 µM for the second.

Compared with `O=c1cc(OCCCCCOc2ccc(-c3nc4ccccc4s3)cc2)c2ccccc2o1` [Compound 3f, 4-((5-(4-(Benzo[d]thiazol-2-yl)phenoxy)pentyl)oxy)-2H-chromen-2-one], `O=c1cc(OCCCCCCOc2ccc(-c3nc4ccccc4s3)cc2)c2ccccc2o1` [Compound 3k, 4-((6-(4-(Benzo[d]thiazol-2-yl)phenoxy)hexyl)oxy)-2H-chromen-2-one] is 4.2-fold higher in IC50: 8.5 ± 0.18 µM for the first, 35.8 ± 0.3 µM for the second.

`O=c1cc(OCCCCOc2ccc(-c3nc4ccccc4s3)cc2)c2ccccc2o1` [Compound 3a, 4-(4-(4-(Benzo[d]thiazol-2-yl)phenoxy)butoxy)-2H-chromen-2-one] showed an IC50 of 4.23 ± 0.11 µM.
